This passage reports IC50 results from US7425557B2, “Inhibitors of glycogen synthase kinase 3” (Novartis Vaccines and Diagnostics, Inc., priority 1998, dated 2008).

Bounds are passed on as bounds.

human GSK3β, sequence (P49841 whole entry): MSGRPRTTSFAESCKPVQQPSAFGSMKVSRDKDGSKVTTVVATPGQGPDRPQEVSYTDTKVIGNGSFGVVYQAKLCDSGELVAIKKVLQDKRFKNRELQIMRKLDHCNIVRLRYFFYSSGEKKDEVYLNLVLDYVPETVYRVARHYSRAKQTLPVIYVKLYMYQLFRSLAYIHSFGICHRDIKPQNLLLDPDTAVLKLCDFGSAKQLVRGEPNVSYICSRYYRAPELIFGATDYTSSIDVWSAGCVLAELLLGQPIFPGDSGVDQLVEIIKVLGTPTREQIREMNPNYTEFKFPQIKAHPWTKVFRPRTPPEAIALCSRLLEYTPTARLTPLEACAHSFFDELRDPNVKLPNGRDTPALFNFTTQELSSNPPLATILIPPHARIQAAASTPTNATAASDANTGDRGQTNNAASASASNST

The assay addresses human GSK3β (Homo sapiens, UniProt P49841). Put plainly: Screening for GSK3 inhibitory activity using a cell-free assay. It counts as biochemical. As to conditions: read-out: IC50 with respect to GSK3. The method in brief: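 Compounds in DMSO were tested against human GSK3β over a three-hour kinase reaction. Radiolabeled phosphate transferred to the peptide was captured on streptavidin plates after EDTA/ATP stop and quantified by scintillation counting. Signal was plotted versus compound concentration.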
For `CCOC(=O)c1cnc(NCCc2ccccn2)nc1-c1ccc(F)cc1` [ethyl 4-(4-fluorophenyl)-2-[(2-(2-pyridyl)ethyl)amino]pyrimidine-5-carboxylate], the half-inhibitory concentration (IC50) was at most 10 µM.

In the case of `CCOC(=O)c1cnc(NCCNc2ccc([N+](=O)[O-])cn2)nc1-c1ccc(OC)cc1` [ethyl 4-(4-methoxyphenyl)-2-({2-[(5-nitro(2-pyridyl))amino]ethyl}amino)pyrimidine-5-carboxylate], the half-inhibitory concentration (IC50) is at most 1 µM.

On to `CCOC(=O)c1cnc(NCCc2ccccn2)nc1-c1ccc(OC)cc1` [ethyl 4-(4-methoxyphenyl)-2-[(2-(2-pyridyl)ethyl)amino]pyrimidine-5-carboxylate], for which the IC50 was at most 10 µM.

Regarding `CCOC(=O)c1cnc(NCCNc2ccc([N+](=O)[O-])cn2)nc1-c1ccc(C)cc1` [ethyl 4-(4-methylphenyl)-2-({2-[(5-nitro(2-pyridyl))amino]ethyl}amino)pyrimidine-5-carboxylate], the IC50 is at most 1 µM.

Regarding `CCOC(=O)c1cnc(NCCNc2ccc([N+](=O)[O-])cn2)nc1-c1ccc(SC)cc1` [ethyl 4-(4-methylthiophenyl)-2-({2-[(5-nitro(2-pyridyl))amino]ethyl}amino)pyrimidine-5-carboxylate], the IC50 is at most 1 µM.

`CCOC(=O)c1cnc(NCCNc2ccc([N+](=O)[O-])cn2)nc1-c1cncc(Br)c1` [ethyl 4-(5-bromo(3-pyridyl))-2-({2-[(5-nitro(2-pyridyl))amino]ethyl}amino)pyrimidine-5-carboxylate]: the IC50 is at most 10 µM.

Regarding `CCOC(=O)c1cnc(NCCNc2ccc([N+](=O)[O-])cn2)nc1-c1ccc(N2CCOCC2)nc1` [ethyl 4-(6-morpholin-4-yl(3-pyridyl))-2-({2-[(5-nitro(2-pyridyl))amino]-ethyl}amino)pyrimidine-5-carboxylate], the concentration for half-maximal inhibition (IC50) was at most 1 µM.

As for `CCOC(=O)c1ccc(-c2ccnc(NCCNc3ccc([N+](=O)[O-])cn3)n2)cc1` [ethyl 4-[2-({2-[(5-nitro-2-pyridyl)amino]ethyl}amino)pyrimidin-4-yl]benzoate], the 50% inhibitory concentration (IC50) was at most 10 µM.

With `CCOC(=O)c1cnc(NCCNc2ccc([N+](=O)[O-])cn2)nc1-c1cc(C(F)(F)F)cc(C(F)(F)F)c1` [ethyl 4-[3,5-bis(trifluoromethyl)-phenyl]-2-({2-[(5-nitro(2-pyridyl))amino]ethyl}amino)pyrimidine-5-carboxylate], the IC50 was at most 10 µM.

`CCOC(=O)c1cnc(NCCNc2ccc([N+](=O)[O-])cn2)nc1-c1ccc(N(CC)CC)cc1` [ethyl 4-[4-(diethylamino)phenyl]-2-({2-[(5-nitro(2-pyridyl))amino]ethyl}-amino)pyrimidine-5-carboxylate]: the half-maximal inhibitory concentration (IC50) is at most 10 µM.

With `CCOC(=O)c1cnc(NCCNc2ccc([N+](=O)[O-])cn2)nc1-c1ccc(N(C)C)cc1` [ethyl 4-[4-(dimethylamino)phenyl]-2-({2-[(5-nitro(2-pyridyl))amino]ethyl}-amino)pyrimidine-5-carboxylate], the concentration for half-maximal inhibition (IC50) is at most 1 µM.

With `CCOC(=O)c1cnc(NCCNc2ccc([N+](=O)[O-])cn2)nc1-c1ccc(S(C)(=O)=O)cc1` [ethyl 4-[4-(methyl-sulfonyl)phenyl]-2-({2-[(5-nitro(2-pyridyl))amino]ethyl}amino)pyrimidine-5-carboxylate], the IC50 was at most 1 µM.

With `CCOC(=O)c1cnc(NCCNc2ccc([N+](=O)[O-])cn2)nc1-c1ccc(C(C)(C)C)cc1` [ethyl 4-[4-(tert-butyl)-phenyl]-2-({2-[(5-nitro(2-pyridyl))amino]ethyl}amino)pyrimidine-5-carboxylate], the IC50 is at most 1 µM.

As to `CCOC(=O)c1cnc(NCCNc2ccc([N+](=O)[O-])cn2)nc1Nc1ccc(Cl)cc1Cl` [ethyl 4-[(2,4-dichlorophenyl)amino]-2-({2-[(5-nitro(2-pyridyl))amino]-ethyl}amino)pyrimidine-5-carboxylate], the 50% inhibitory concentration (IC50) was at most 10 µM.

In the case of `CCOC(=O)c1cnc(NCCNc2ccc([N+](=O)[O-])cn2)nc1NCc1ccccc1Cl` [ethyl 4-{[(2-chlorophenyl)methyl]amino}-2-({2-[(5-nitro(2-pyridyl))amino]ethyl}amino)pyrimidine-5-carboxylate], the IC50 is at most 10 µM.

Consider `CCOC(=O)c1cnc(NCCNc2ccc([N+](=O)[O-])cn2)nc1NCc1cccc(Br)c1` [ethyl 4-{[(3-bromophenyl)methyl]amino}-2-({2-[(5-nitro(2-pyridyl))amino]ethyl}amino)pyrimidine-5-carboxylate], for which the 50% inhibitory concentration (IC50) was at most 10 µM.

`CCOC(=O)c1cnc(NCCNc2ccc([N+](=O)[O-])cn2)nc1NCc1ccc(C#N)cc1` [ethyl 4-{[(4-cyanophenyl)methyl]amino}-2-({2-[(5-nitro(2-pyridyl))amino]-ethyl}amino)pyrimidine-5-carboxylate]: the IC50 is at most 1 µM.

As to `CCOC(=O)c1cnc(NCCNc2ccc([N+](=O)[O-])cn2)nc1-c1ccc(N2CCOCC2)cc1` [ethyl-4-(morpholin-4-ylphenyl)-2-({2-[(5-nitro(2-pyridyl))amino]ethyl}amino)pyrimidine-5-carboxylate], the IC50 was at most 1 µM.

Turning to `COC(=O)c1cnc(NCCNc2ccc([N+](=O)[O-])cn2)nc1-c1cccnc1` [methyl 2-({2-[(5-nitro(2-pyridyl))amino]ethyl}amino)-4-(3-pyridyl)pyrimidine-5-carboxylate], the 50% inhibitory concentration (IC50) is at most 10 µM.

Consider `COC(=O)c1cnc(NCCNc2ccc([N+](=O)[O-])cn2)nc1-c1ccc(C#N)cc1` [methyl 4-(4-cyanophenyl)-2-({2-[(5-nitro(2-pyridyl))amino]ethyl}amino)pyrimidine-5-carboxylate], for which the IC50 was at most 1 µM.

Take `CCOC(=O)c1cnc(NCCNc2ccc(C(=O)OC)cn2)nc1-c1ccc(C#N)cc1` [methyl 6-[(2-{[4-(4-cyanophenyl)-5-(ethoxycarbonyl)pyrimidin-2-yl]amino}ethyl)amino]pyridine-3-carboxylate]: the concentration for half-maximal inhibition (IC50) was at most 10 µM.

Regarding `N#Cc1ccc(-c2nc(NCCNc3ccc([N+](=O)[O-])cn3)ncc2C(=O)OCc2ccccc2)cc1` [phenylmethyl 4-(4-cyanophenyl)-2-({2-[(5-nitro(2-pyridyl))amino]ethyl}amino)pyrimidine-5-carboxylate], the IC50 is at most 1 µM.

With `CC(C)(C)OC(=O)c1cnc(NCCNc2ccc([N+](=O)[O-])cn2)nc1-c1ccc(C#N)cc1` [tert-butyl 4-(4-cyanophenyl)-2-({2-[(5-nitro(2-pyridyl))amino]-ethyl}amino)pyrimidine-5-carboxylate], the IC50 is at most 1 µM.

As to `CCOC(=O)c1cnc(NCCNc2ccc(C(=O)OC(C)(C)C)cn2)nc1-c1ccc(C#N)cc1` [tert-butyl 6-[(2-{[4-(4-cyanophenyl)-5-(ethoxycarbonyl)pyrimidin-2-yl]amino}ethyl)amino]pyridine-3-carboxylate], the half-maximal inhibitory concentration (IC50) is at most 10 µM.

For the compound `O=[N+]([O-])c1ccc(NCCNc2nccc(-c3cnccn3)n2)nc1` [{2-[(5-nitro(2-pyridyl))amino]ethyl}(4-pyrazin-2-ylpyrimidin-2-yl)amine], the IC50 is at most 10 µM.

Turning to `O=[N+]([O-])c1ccc(NCCNc2ncc([N+](=O)[O-])c(-c3ccccc3)n2)nc1` [{2-[(5-nitro(2-pyridyl))amino]ethyl}(5-nitro-4-phenylpyrimidin-2-yl)amine], the IC50 was at most 1 µM.

Take `O=[N+]([O-])c1ccc(NCCNc2ccc([N+](=O)[O-])c(NCc3ccccc3)n2)nc1` [{2-[(5-nitro(2-pyridyl))amino]ethyl}{5-nitro-6-[benzylamino](2-pyridyl)}amine]: the IC50 was at most 10 µM.
